Here are results for 24 molecules from ChEMBL document CHEMBL5104145, “Synthesis of antiplasmodial 2-aminothieno[3,2-d]pyrimidin-4(3H)-one analogues using the scaffold hopping strategy” (Eur J Med Chem, 2022).

Structures are written as SMILES. pEC50: −log10 of the molar value. Converted amounts (≈) assume the structure as drawn.

A word on the pEC50: it is the negative decadic logarithm of the EC50, by convention in mol/L. The term CC50 denotes the concentration at which the toxic effect on the cells reaches its halfway point.

A short description of data set [1]: Thermodynamic solubility of compound at pH 7.4 incubated for 24 hrs by shake-flask method. As to conditions: buffer, read-out: Therm_solubility. The data set is classed as physicochemical.
Data set [2] in a line: Permeability of compound at 100 uM at pH 5 incubated for 4 hrs by PAMPA-GIT assay. The class given is ADME. The following applies: read-out: permeability.
Data set [3] is described as follows: Permeability of compound at 100 uM at pH 7.4 incubated for 4 hrs by PAMPA-GIT assay. The following applies: read-out: permeability. The class given is ADME. On the technique in general: The PAMPA barrier holds no transporters, so it reflects passive diffusion.
A short description of data set [4]: Permeability of compound at 100 uM at pH 6 incubated for 4 hrs by PAMPA-GIT assay. The following applies: read-out: permeability. The data set is classed as ADME.
The test system of data set [5] is Plasmodium falciparum. The experiment in a line: Antiplasmodial activity against Plasmodium falciparum K1 assessed as reduction in parasite growth. The class given is functional, organism-based.
Data set [6] is described as follows: (§1) Cytotoxicity against human HepG2 cells assessed as reduction in cell viability incubated for 72 hrs by MTT assay. The class given is toxicity, cell-based. The following applies: HepG2 cells.
Data set [7] has as its system Plasmodium falciparum. The experiment in a line: Antiplasmodial activity against chloroquine,pyrimethamine and proguanil resistant blood stage Plasmodium falciparum K1 assessed as reduction in parasite growth incubated for 72 hrs by SYBR Green I fluorescence-based method. The class given is functional, organism-based.
Data set [8] can be described thus: Selectivity index, ratio of CC50 for cytotoxicity against human HepG2 cells to EC50 for antiplasmodial activity against chloroquine,pyrimethamine and proguanil resistant blood stage Plasmodium falciparum K1. The following applies: for selectivity ratio: HepG2 cells, read-out: Ratio CC50/EC50. The class given is toxicity, cell-based.
Data set [9] in a line: Solubility of compound in culture media. The data set is classed as physicochemical.
The next data set relates to HepG2. Described as §1. The data set is classed as toxicity, cell-based. As to conditions: hepg2, 72 h, 72 h.
[10] abbreviates: Plasmodium falciparum, K1, 72 h.

Consider `Cc1ccc(-c2cc3nc(NC(C)(C)C)[nH]c(=O)c3s2)cc1`, for which the solubility thermodynamic at 24 h in [1] was 1.56 µM (≈ 0.489 µg/mL). The Papp at 4 h, 100 µM is 4.18 ×10⁻⁶ cm/s in data set [2], 2.05 ×10⁻⁶ cm/s in data set [3] and 1.86 ×10⁻⁶ cm/s in [4].
Consider `Cc1ccc(-c2ccc3nc(NC(C)(C)C)[nH]c(=O)c3c2)cc1`, for which the pEC50 in the data set on Plasmodium falciparum [5] was below 5.30.
Regarding `Cc1ccc(-c2ccc3c(=O)[nH]c(NC(C)(C)C)nc3c2)cc1`, the pEC50 with Plasmodium falciparum [5] is below 5.30.
Turning to `Cc1ccc(-c2cc3nc(NC(C)(C)C)[nH]c(=O)c3s2)cc1.Cl`, the solubility thermodynamic at 24 h in data set [1] amounted to 7.92 µM. Moreover, in [3], the Papp at 4 h, 100 µM was determined as 0.46 ×10⁻⁶ cm/s.
As for `Cc1ccc(-c2cc3nc(NC(C)(C)C)[nH]c(=O)c3o2)cc1`, the CC50 at 72 h in [6] stood at 10.9 µM. Also, in the data set on Plasmodium falciparum [7], the pEC50 is 6.10. Also, in [8], the “Ratio CC50/EC50” value worked out at 13.6.
With `CC(C)(C)Nc1nc2cc(-c3ccc(F)cc3)oc2c(=O)[nH]1`, the CC50 at 72 h in data set [6] is above 3.12 µM. For the same molecule, in the data set with Plasmodium falciparum [7] (setting [10]), the pEC50 was 5.54. For the same molecule, the solubility result in data set [9] is reported as “Insoluble”. The selectivity ratio in [8] is above 1.1.
Take `CC(C)(C)Nc1nc2sc(-c3ccccc3)cc2c(=O)[nH]1`: the half-maximal cytotoxic concentration (CC50) at 72 h in data set [6] was above 12.5 µM. Further, the pEC50 in the data set with Plasmodium falciparum [7] (setting [10]) was 4.47. Besides, the selectivity ratio in data set [8] is above 0.4.
Turning to `Cc1ccc(-c2cc3nc(NC(C)C)[nH]c(=O)c3o2)cc1`, the solubility thermodynamic at 24 h in [1] turned out to be 11.5 µM (≈ 3.26 µg/mL). Further, the Papp at 4 h, 100 µM in [2] came to 41.1 ×10⁻⁶ cm/s; in data set [3], 76.9 ×10⁻⁶ cm/s; in data set [4], 64.3 ×10⁻⁶ cm/s. Further, in data set [6], the CC50 at 72 h was 20.4 µM. Moreover, the pEC50 in the data set on Plasmodium falciparum [7] (setting [10]) was 7.05. Moreover, the selectivity ratio in data set [8] came out at 227.
Consider `Cc1ccc(-c2cc3nc(NC(C)C)[nH]c(=O)c3[se]2)cc1`, for which the CC50 with HepG2 was above 25 µM. Besides, in the data set with Plasmodium falciparum [7] (setting [10]), the pEC50 was 6.10. Further, the “Ratio CC50/EC50” value in [8] is reported as above 31.3.
On to `Cc1ccc(-c2nc3nc(NC(C)(C)C)[nH]c(=O)c3s2)cc1`, for which, in [6], the CC50 at 72 h is above 5 µM. For the same molecule, the pEC50 in the data set with Plasmodium falciparum [7] (setting [10]) was 5.34. The selectivity ratio in [8] is above 1.1.
For `Cc1ccc(-c2cc3nc(NC(C)(C)C)[nH]c(=O)c3[se]2)cc1`, the 50% cytotoxic concentration (CC50) in the data set with HepG2 is above 7.8 µM. The pEC50 with Plasmodium falciparum [7] is 5.89. Further, the “Ratio CC50/EC50” value in [8] is recorded as above 6.
Taken in the same sequence, the figures for `Cc1ccc(-c2cc3nc(NC(C)(C)C)[nH]c(=O)c3[se]2)cc1.Cl` were above 3.12 µM, 6.89 and above 24.
For the molecule `Cc1c(-c2ccc(F)cc2)sc2c(=O)[nH]c(NC(C)C)nc12`, in data set [6], the CC50 at 72 h was 19.7 µM. For the same molecule, the pEC50 with Plasmodium falciparum [7] (setting [10]) is 5.37. Further, the selectivity ratio in data set [8] was 4.6.
Turning to `CC(C)(C)Nc1nc2sc(-c3ccc(Cl)cc3)cc2c(=O)[nH]1`, the CC50 at 72 h in data set [6] was found to be 21.4 µM. Besides, the pEC50 with Plasmodium falciparum [7] (setting [10]) was below 4.30. Moreover, the selectivity ratio in data set [8] is below 0.4.
With `CC(C)(C)Nc1nc2nc(-c3ccc(Cl)cc3)sc2c(=O)[nH]1`, in data set [9], the solubility result is listed as “Insoluble”.
Turning to `Cc1ccc(-c2cc3nc(NC(C)(C)C)[nH]c(=O)c3o2)cc1.Cl`, the CC50 in the data set on HepG2 stood at 21.7 µM. Moreover, the pEC50 in the data set on Plasmodium falciparum [7] was 6.52. In addition, the “Ratio CC50/EC50” value in data set [8] amounted to 72.3.
On to `CC(C)(C)Nc1nc2cc(-c3ccc(Cl)cc3)oc2c(=O)[nH]1`, for which, in [6], the CC50 at 72 h was above 6.25 µM. For the same molecule, in the data set with Plasmodium falciparum [7] (setting [10]), the pEC50 was 6.40. For the same molecule, in data set [9], the solubility entry is recorded as “Insoluble”. In data set [8], the selectivity ratio was above 15.6.
As to `Cc1ccc(-c2cc3nc(NC(C)C)[nH]c(=O)c3[se]2)cc1.Cl`, the CC50 in the data set with HepG2 was above 10 µM. For the same molecule, in the data set on Plasmodium falciparum [7], the pEC50 is 6.11. For the same molecule, in data set [8], the “Ratio CC50/EC50” value is above 13.
On to `CC(C)(C)Nc1nc2nc(-c3ccc(F)cc3)sc2c(=O)[nH]1`, for which the solubility entry in data set [9] is given as “Insoluble”.
As for `CC(C)(C)Nc1nc2sc(-c3ccc(F)cc3)cc2c(=O)[nH]1`, the CC50 at 72 h in data set [6] is above 25 µM. The pEC50 with Plasmodium falciparum [7] (setting [10]) is below 4.90.
Consider `Cc1ccc(-c2cc3c(=O)[nH]c(NC(C)(C)C)nc3s2)cc1`, for which, in data set [6], the CC50 at 72 h came to 20.5 µM. Also, in the data set with Plasmodium falciparum [7] (setting [10]), the pEC50 is 4.49. Further, in data set [8], the selectivity ratio was 0.6.
Regarding `CC(C)(C)Nc1nc2nc(-c3ccccc3)sc2c(=O)[nH]1`, in [6], the CC50 at 72 h was above 25 µM. Besides, in the data set on Plasmodium falciparum [7] (setting [10]), the pEC50 is below 4.90.
With `CCOC(=O)c1[nH]c(-c2ccc(C)cc2)c2c(=O)[nH]c(NC(C)(C)C)nc12`, the CC50 at 72 h in [6] came to 7.4 µM. In addition, the pEC50 in the data set on Plasmodium falciparum [7] (setting [10]) is 4.77. Besides, the selectivity ratio in data set [8] amounted to 0.4.
For `Cc1c(-c2ccc(Cl)cc2)sc2c(=O)[nH]c(NC(C)C)nc12` the same measures were above 25 µM, 5.36 and above 5.7.
